Results published in patent US11548871B2, “Triazole carbamate pyridyl sulfonamides as LPA receptor antagonists and uses thereof” (Gilead Sciences, Inc., priority 2019, dated 2023).

These compounds were tested against human LPAR1 (Homo sapiens, UniProt Q92633) (assay: LPAR1 intracellular calcium mobilization assay (antagonist mode)).
human LPAR1, sequence (Q92633 whole entry): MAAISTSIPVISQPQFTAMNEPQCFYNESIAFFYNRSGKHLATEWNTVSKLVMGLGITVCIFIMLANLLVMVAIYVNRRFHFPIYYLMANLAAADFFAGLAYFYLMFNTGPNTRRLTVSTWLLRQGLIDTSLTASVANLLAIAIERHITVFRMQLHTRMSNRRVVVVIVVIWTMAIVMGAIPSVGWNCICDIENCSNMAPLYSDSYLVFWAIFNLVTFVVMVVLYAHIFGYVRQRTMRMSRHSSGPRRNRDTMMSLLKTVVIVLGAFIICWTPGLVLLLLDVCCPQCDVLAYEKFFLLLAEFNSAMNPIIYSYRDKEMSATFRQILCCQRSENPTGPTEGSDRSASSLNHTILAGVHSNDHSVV

Row | SMILES | EC50 [nM]
1 | Cc1nc(-c2nnn(C)c2NC(=O)O[C@H](CF)c2cccc(F)c2)ccc1NS(C)(=O)=O [Compound 43, (S)-2-fluoro-1-(3-fluorophenyl)ethyl (1-methyl-4-(6-methyl-5-(methylsulfonamido)pyridin-2-yl)-1H-1,2,3-triazol-5-yl)carbamate] | 18.4
2 | C[C@@H](OC(=O)Nc1c(-c2ncc(NS(C)(=O)=O)cc2F)nnn1C)c1ccccc1Cl [Compound 89, (R)-1-(2-chlorophenyl)ethyl(4-(3-fluoro-5-(methylsulfonamido)pyridin-2-yl)-1-methyl-1H-1,2,3-triazol-5-yl)carbamate] | 31.4
3 | Cc1nc(-c2nnn(C)c2NC(=O)O[C@H](C)c2cc(F)cc(F)c2)ccc1NS(C)(=O)=O [Compound 53, (R)-1-(3,5-difluorophenyl)ethyl (1-methyl-4-(6-methyl-5-(methylsulfonamido)pyridin-2-yl)-1H-1,2,3-triazol-5-yl)carbamate] | 170
4 | C[C@@H](OC(=O)Nc1c(-c2ccc(NS(C)(=O)=O)cn2)nnn1C)c1cccc(Cl)c1 [Compound 14, (R)-1-(3-chlorophenyl)ethyl (1-methyl-4-(5-(methylsulfonamido)pyridin-2-yl)-1H-1,2,3-triazol-5-yl)carbamate] | 66.3
5 | Cc1nc(-c2nnn(C)c2NC(=O)O[C@H](C)c2cc(F)cnc2C#N)ccc1NS(C)(=O)=O [Compound 152, 1-(2-cyano-5-fluoropyridin-3-yl)ethyl (1-methyl-4-(6-methyl-5-(methylsulfonamido)pyridin-2-yl)-1H-1,2,3-triazol-5-yl)carbamate] | 1300
6 | Cc1nc(-c2nnn(C)c2NC(=O)OC(C)c2cc(Cl)nnc2Cl)ccc1NS(C)(=O)=O (stereo not shown) [Compound 134, 1-(3,6-dichloropyridazin-4-yl)ethyl (1-methyl-4-(6-methyl-5-(methylsulfonamido)pyridin-2-yl)-1H-1,2,3-triazol-5-yl)carbamate] | 1830
7 | [2H]C([2H])([2H])N(c1ccc(-c2nnn(C)c2NC(=O)O[C@H](C)c2cccnc2Cl)nc1C)S(C)(=O)=O [Compound 164, (R)-1-(2-chloropyridin-3-yl)ethyl (1-methyl-4-(6-methyl-5-(N-(methyl-d3)methylsulfonamido)pyridin-2-yl)-1H-1,2,3-triazol-5-yl)carbamate] | 438
8 | Cc1nc(-c2nnn(C)c2NC(=O)OCc2ccccc2Cl)ccc1NS(C)(=O)=O [Compound 40, 2-chlorobenzyl (1-methyl-4-(6-methyl-5-(methylsulfonamido)pyridin-2-yl)-1H-1,2,3-triazol-5-yl)carbamate] | 87
9 | Cc1nc(-c2nnn(C)c2NC(=O)OCc2cccc(F)c2)ccc1NS(C)(=O)=O [Compound 91, 3-fluorobenzyl(1-methyl-4-(6-methyl-5-(methylsulfonamido)pyridin-2-yl)-1H-1,2,3-triazol-5-yl)carbamate] | 72.6
10 | Cc1nc(-c2nnn(C)c2NC(=O)O[C@H](C)c2cc(F)c(F)cc2F)ccc1NS(C)(=O)=O [Compound 90, (R)-1-(2,4,5-trifluorophenyl)ethyl(1-methyl-4-(6-methyl-5-(methylsulfonamido)pyridin-2-yl)-1H-1,2,3-triazol-5-yl)carbamate] | 282
11 | Cc1nc(-c2nnn(C)c2NC(=O)O[C@@H](c2cccc(F)c2)C(F)F)ccc1NS(C)(=O)=O [Compound 58, (S)-2,2-difluoro-1-(3-fluorophenyl)ethyl (1-methyl-4-(6-methyl-5-(methylsulfonamido)pyridin-2-yl)-1H-1,2,3-triazol-5-yl)carbamate] | 43.9
12 | Cc1nc(-c2nnn(C)c2NC(=O)OC(CCC2CC2)C(F)(F)F)ccc1NS(C)(=O)=O (stereo not shown) [Compound 46, 4-cyclopropyl-1,1,1-trifluorobutan-2-yl (1-methyl-4-(6-methyl-5-(methylsulfonamido)pyridin-2-yl)-1H-1,2,3-triazol-5-yl)carbamate] | 91.3
13 | C[C@@H](OC(=O)Nc1c(-c2ccc(NS(C)(=O)=O)cn2)nnn1C)c1cc(F)ncc1F [Compound 117, (R)-1-(2,5-difluoropyridin-4-yl)ethyl (1-methyl-4-(5-(methylsulfonamido)pyridin-2-yl)-1H-1,2,3-triazol-5-yl)carbamate] | 218
14 | Cc1ccncc1C(C)OC(=O)Nc1c(-c2ccc(NS(C)(=O)=O)c(C)n2)nnn1C (stereo not shown) [Compound 82, 1-(4-methylpyridin-3-yl)ethyl (1-methyl-4-(6-methyl-5-(methylsulfonamido)pyridin-2-yl)-1H-1,2,3-triazol-5-yl)carbamate] | 2300
15 | C[C@@H](OC(=O)Nc1c(-c2ccc(NS(C)(=O)=O)cn2)nnn1C)c1cccnc1Br [Compound 116, (R)-1-(2-bromopyridin-3-yl)ethyl (1-methyl-4-(5-(methylsulfonamido)pyridin-2-yl)-1H-1,2,3-triazol-5-yl)carbamate] | 129
16 | C[C@@H](OC(=O)Nc1c(-c2ccc(NS(C)(=O)=O)c(Cl)n2)nnn1C)c1ccccc1 [Compound 2, (R)-1-phenylethyl (4-(6-chloro-5-(methylsulfonamido)pyridin-2-yl)-1-methyl-1H-1,2,3-triazol-5-yl)carbamate] | 270
17 | Cc1nc(-c2nnn(C)c2NC(=O)O[C@H](C)c2ccccc2Cl)ccc1NS(=O)(=O)CC#N [Compound 102, (R)-1-(2-chloro-phenyl)ethyl (4-(5-((cyano-methyl)sulfonamido)-6-methyl-pyridin-2-yl)-1-methyl-1H-1,2,3-triazol-5-yl)carbamate] | 88.4
18 | COCc1nc(-c2nnn(C)c2NC(=O)O[C@H](C)c2cccnc2Cl)ccc1NS(C)(=O)=O [Compound 145, (R)-1-(2-chloropyridin-3-yl)ethyl (4-(6-(methoxymethyl)-5-(methylsulfonamido)pyridin-2-yl)-1-methyl-1H-1,2,3-triazol-5-yl)carbamate] | 493
19 | Cn1nnc(-c2ccc(NS(C)(=O)=O)cn2)c1NC(=O)O[C@H](CF)c1ccccc1 [Compound 18, (S)-2-fluoro-1-phenylethyl (1-methyl-4-(5-(methylsulfonamido)pyridin-2-yl)-1H-1,2,3-triazol-5-yl)carbamate] | 46.1
20 | Cc1nc(-c2nnn(C)c2NC(=O)O[C@H](C)c2cc(Cl)sc2Cl)ccc1NS(C)(=O)=O [Compound 52, (R)-1-(2,5-dichlorothiophen-3-yl)ethyl (1-methyl-4-(6-methyl-5-(methylsulfonamido)pyridin-2-yl)-1H-1,2,3-triazol-5-yl)carbamate] | 16.7
21 | Cc1nc(-c2nnn(C)c2NC(=O)OCCC(C)(C)C)ccc1NS(C)(=O)=O [Compound 32, 3,3-dimethylbutyl (1-methyl-4-(6-methyl-5-(methylsulfonamido)pyridin-2-yl)-1H-1,2,3-triazol-5-yl)carbamate] | 1690
22 | COc1ncccc1[C@@H](C)OC(=O)Nc1c(-c2ccc(NS(C)(=O)=O)c(C)n2)nnn1C [Compound 122, (R)-1-(2-methoxypyridin-3-yl)ethyl (1-methyl-4-(6-methyl-5-(methylsulfonamido)pyridin-2-yl)-1H-1,2,3-triazol-5-yl)carbamate] | 920
23 | Cc1ncc(Cl)cc1[C@@H](C)OC(=O)Nc1c(-c2ccc(NS(C)(=O)=O)cn2)nnn1C [Compound 113, (R)-1-(5-chloro-2-methylpyridin-3-yl)ethyl (1-methyl-4-(5-(methylsulfonamido)pyridin-2-yl)-1H-1,2,3-triazol-5-yl)carbamate] | 83
24 | Cc1nc(-c2nnn(CC#N)c2NC(=O)O[C@H](C)c2ccccc2)ccc1NS(C)(=O)=O [Compound 99, (R)-1-phenylethyl(1-(cyanomethyl)-4-(6-methyl-5-(methylsulfonamido)pyridin-2-yl)-1H-1,2,3-triazol-5-yl)carbamate] | 44.6
25 | Cc1nc(-c2nnn(C)c2NC(=O)O[C@H](CF)c2ccccc2)ccc1NS(C)(=O)=O [Compound 59, (S)-2-fluoro-1-phenylethyl (1-methyl-4-(6-methyl-5-(methylsulfonamido)pyridin-2-yl)-1H-1,2,3-triazol-5-yl)carbamate] | 37.7
26 | Cc1nc(-c2nnn(C)c2NC(=O)O[C@@H](c2ccccc2)C(F)(F)F)ccc1NS(C)(=O)=O [Compound 94, (S)-2,2,2-trifluoro-1-phenylethyl(1-methyl-4-(6-methyl-5-(methylsulfonamido)pyridin-2-yl)-1H-1,2,3-triazol-5-yl)carbamate] | 38.6
27 | Cc1nc(-c2nnn(C)c2NC(=O)OC(C2CCCCC2)C(F)(F)F)ccc1NS(C)(=O)=O (stereo not shown) [Compound 48, 1-cyclohexyl-2,2,2-trifluoroethyl (1-methyl-4-(6-methyl-5-(methylsulfonamido)pyridin-2-yl)-1H-1,2,3-triazol-5-yl)carbamate] | 162
28 | Cc1nc(-c2nnn(C)c2NC(=O)O[C@@H](c2ccccc2F)C(F)(F)F)ccc1NS(C)(=O)=O [Compound 97, (S)-2,2,2-trifluoro-1-(2-fluorophenyl)ethyl(1-methyl-4-(6-methyl-5-(methylsulfonamido)pyridin-2-yl)-1H-1,2,3-triazol-5-yl)carbamate] | 387
